Measurements taken from patent US12240846B2 (Enliven Inc., priority 2020, dated 2025).
Counter-ions that a name gives are not always drawn.

Legend:
[1] = tested on: K562 cells; test: K562 cell proliferation assay (CellTiter-Glo); type: cell-based; conditions: Homo sapiens, K562 cell viability, 72 hours, read-out: Cell Line (IC50, nM) K562
Method: (§1) K562 and HL60 Cell Proliferation Assay
(§2) K562 and HL60 cells, cultured in Iscove's Modified Dulbecco's Media (IMDM) supplemented with 10% FBS, were harvested at 50-80% confluency and plated at 2,000 cells per well (K562) or 1,500 cells per well (HL60) in 384-well tissue culture plates. A subset of wells contained media only (low control, LC). […] The plates were placed in a 37° C. incubator with 5% CO2 for 72 hours. Cell viability was measured using a CellTiter-Glo luminescent cell viability assay (Promega), which allows for relative quantification of metabolically active cells by luminescence-based measurements of intracellular ATP concentrations. Briefly, plates were removed from the incubator and equilibrated for 15 minutes at room temperature prior to the addition of 40 μL of CellTiter-Glo reagent. Plates were then incubated for 30 minutes at room temperature. Luminescence was measured using an EnSpire plate reader (Perkin Elmer). As noted above, luminescence values from wells with DMSO only or media without cells were used as high and low controls (HC and LC), respectively. Normalized percent viability was calculated as follows: percent viability=100×(Lumsample−LumLC)/(LumHC−LumLC).

[2] = tested on: HL60 cells; test: HL60 cell proliferation assay (CellTiter-Glo); type: cell-based; conditions: Homo sapiens, HL-60, HL60 cell viability, 72 hours, read-out: Cell Line (IC50, nM) HL60
Method: as §1, §2

[3] = molecular target: T1, ABL1 (Homo sapiens, UniProt P00519); test: Luminescence-based ABL kinase assay (300 μM ATP), ADP-Glo; type: biochemical
T1 construct: purchased Carna Biosciences
Source text: Compounds were serially diluted in DMSO. […] Luminescence signal positively correlates with kinase activity.

[4] = molecular target: ABL1 (T315I) (Homo sapiens, UniProt P00519, T315I); test: as above; type: biochemical
Method: Kinase activity of ABL1 was measured using the ADP-Glo system (Promega), which measures formation of ADP using a luminescence-based method. Compounds were serially diluted in DMSO. 20 nL of compound or DMSO only (high control, HC) were added to a 384-well plate (OptiPlate-384. PerkinElmer) using an Echo550 liquid handler (Labcyte). 15 μL of kinase solution (10 mM MgCl2, 0.01% Brij-35, 2 mM DTT, 0.05% BSA, 1 mM EGTA, 50 mM HEPES pH 7.5, and 3.325 nM ABL1 [Carna Biosciences]) were added to each well of the 384-well plate containing the compounds. No enzyme control wells were included (low control, LC). The plate was incubated at room temperature for 30 minutes. 5 μL of a second solution containing 10 mM MgCl2, 0.01% Brij-35, 2 mM DTT, 0.05% BSA, 1 mM EGTA, 50 mM HEPES pH 7.5, 6 μM Peptide 2 (Perkin Elmer, Cat No 760346), and 1.2 mM ATP were added to each well to start the kinase reaction. The plate was incubated for 90 minutes at room temperature. 20 μL of ADP-Glo reagent (Promega) were then added to each well and the plate was incubated for 40 minutes at room temperature. 40 μL of kinase detection reagent (Promega) was added to each well and the plate was incubated for an additional 45 minutes at room temperature. During this step, ADP was converted to ATP, a substrate for luciferase, to produce luminescence signal. Luminescence was measured on an Envision plate reader (Perkin Elmer). Luminescence signal positively correlates with kinase activity. The percent kinase activity was calculated as follows: percent kinase activity=100×(Lumsample−LumLC)/(LumHC−LumLC). As noted above, DMSO only and no enzyme wells were used as high and low controls, respectively. IC50 values were calculated using the XLFit software.

IC50 [1]	IC50 [2]	IC50 [3]	IC50 [4]	Compound
108 nM	> 10000 nM	37.3 nM	58.1 nM	COc1ncc(F)c(OC)c1-c1cc2cc(NC(=O)[C@@H]3C[C@H]3CN(C)C)ncc2n1C (single isomer, unassigned) [Compound 130]
109 nM	202 nM	25.4 nM	17.7 nM	COc1ccccc1-c1cc2cc(NC(=O)C3CC3)ncc2n1C [Compound 2, N-(2-(2-methoxyphenyl)-1-methyl-1H-pyrrolo[2,3-c]pyridin-5-yl)cyclopropanecarboxamide]
37.8 nM	60.9 nM	9.22 nM	6.59 nM	Cc1c(O)cccc1-c1cc2cc(NC(=O)C3CC3)ncc2n1C [Compound 7, N-[2-(3-hydroxy-2-methylphenyl)-1-methylpyrrolo[2,3-c]pyridin-5-yl]cyclopropanecarboxamide]
0.421 nM	182 nM	13.8 nM	38.6 nM	COc1cccc(C)c1-c1cc2cc(NC(=O)C3CC3)ncc2n1C [Compound 11, N-[2-(2-methoxy-6-methylphenyl)-1-methylpyrrolo[2,3-c]pyridin-5-yl]cyclopropanecarboxamide]
122 nM	794 nM	9.33 nM	8.34 nM	Cc1c(O)cccc1-c1cc2cc(NC(=O)[C@@H]3C[C@@H]3F)ncc2n1C [Compound 24, (1S,2S)-2-fluoro-N-(2-(3-hydroxy-2-methylphenyl)-1-methyl-1H-pyrrolo[2,3-c]pyridin-5-yl)cyclopropane-1-carboxamide]
91.7 nM	523 nM	10.9 nM	10.8 nM	COc1cccc(C)c1-c1cc2cc(NC(=O)[C@@H]3C[C@@H]3F)ncc2n1C [Compound 25, (1S,2S)-2-fluoro-N-[2-(2-methoxy-6-methylphenyl)-1-methylpyrrolo[2,3-c]pyridin-5-yl]cyclopropane-1-carboxamide]
258 nM	800 nM	52 nM	22.2 nM	COc1c(-c2cc3cc(NC(=O)[C@@H]4C[C@@H]4F)ncc3n2C)ccc2[nH]cnc12 [Compound 29, (1S,2S)-2-fluoro-N-[2-(4-methoxy-1H-1,3-benzodiazol-5-yl)-1-methylpyrrolo[2,3-c]pyridin-5-yl]cyclopropane-1-carboxamide]
245 nM	320 nM	119 nM	139 nM	COc1c(-c2cc3cc(NC(=O)[C@@H]4C[C@@H]4F)ncc3n2C)ccc2cn[nH]c12 [Compound 30, (1S,2S)-2-fluoro-N-(2-(7-methoxy-1H-indazol-6-yl)-1-methyl-1H-pyrrolo[2,3-c]pyridin-5-yl)cyclopropane-1-carboxamide]
208 nM	3840 nM	40.8 nM	124 nM	COc1ncccc1-c1cc2cc(NC(=O)[C@H]3C[C@H]3F)ncc2n1C [Compound 34, (1R,2R)-2-fluoro-N-[2-(2-methoxypyridin-3-yl)-1-methylpyrrolo[2,3-c]pyridin-5-yl]cyclopropane-1-carboxamide]
105 nM	3630 nM	6.33 nM	308 nM	CCOc1ncccc1-c1cc2cc(NC(=O)[C@@H]3C[C@@H]3F)ncc2n1C [Compound 36, (1S,2S)-N-[2-(2-ethoxypyridin-3-yl)-1-methylpyrrolo[2,3-c]pyridin-5-yl]-2-fluorocyclopropane-1-carboxamide]
317 nM	> 10000 nM	50.2 nM	24.7 nM	COc1ccccc1-c1c(C)c2cc(NC(=O)[C@@H]3C[C@@H]3F)ncc2n1C [Compound 43, (1S,2S)-2-fluoro-N-(2-(2-methoxyphenyl)-1,3-dimethyl-1H-pyrrolo[2,3-c]pyridin-5-yl)cyclopropane-1-carboxamide]
368 nM	> 10000 nM	74.5 nM	36 nM	COc1ccccc1-c1c(C)c2cc(NC(=O)[C@H]3C[C@H]3F)ncc2n1C [Compound 44, (1R,2R)-2-fluoro-N-[2-(2-methoxyphenyl)-1,3-dimethylpyrrolo[2,3-c]pyridin-5-yl]cyclopropane-1-carboxamide]
1360 nM	> 10000 nM	244 nM	548 nM	COc1ccccc1-c1c(C#N)c2cc(NC(=O)C3CC3)ncc2n1C [Compound 47, N-[3-cyano-2-(2-methoxyphenyl)-1-methylpyrrolo[2,3-c]pyridin-5-yl]cyclopropanecarboxamide]
85.8 nM	808 nM	31.7 nM	4.48 nM	COc1ccccc1-c1[nH]c2cc(NC(=O)[C@@H]3C[C@@H]3F)ncc2c1C [Compound 48, (1S,2S)-2-fluoro-N-[2-(2-methoxyphenyl)-3-methyl-1H-pyrrolo[3,2-c]pyridin-6-yl]cyclopropane-1-carboxamide]
240 nM	6200 nM	198 nM	141 nM	COc1ncccc1-c1c(C)c2cnc(NC(=O)[C@@H]3C[C@@H]3F)cc2n1C [Compound 56, (1S,2S)-2-fluoro-N-[2-(2-methoxypyridin-3-yl)-1,3-dimethylpyrrolo[3,2-c]pyridin-6-yl]cyclopropane-1-carboxamide]
128 nM	4270 nM	111 nM	83.7 nM	COc1ncc(F)cc1-c1c(C)c2cnc(NC(=O)[C@@H]3C[C@@H]3F)cc2n1C [Compound 57, (1S,2S)-2-fluoro-N-(2-(5-fluoro-2-methoxypyridin-3-yl)-1,3-dimethyl-1H-pyrrolo[3,2-c]pyridin-6-yl)cyclopropane-1-carboxamide]
120 nM	1460 nM	40.2 nM	40.7 nM	COc1nccc(C)c1-c1cc2cc(NC(=O)[C@@H]3C[C@@H]3F)ncc2n1C [Compound 59, (1S,2S)-2-fluoro-N-[2-(2-methoxy-4-methylpyridin-3-yl)-1-methylpyrrolo[2,3-c]pyridin-5-yl]cyclopropane-1-carboxamide]
718 nM	6490 nM	191 nM	193 nM	COc1ncc(F)cc1-c1c(C)c2cc(NC(=O)[C@@H]3C[C@@H]3F)ncc2n1C [Compound 60, (1S,2S)-2-fluoro-N-[2-(5-fluoro-2-methoxypyridin-3-yl)-1,3-dimethylpyrrolo[2,3-c]pyridin-5-yl]cyclopropane-1-carboxamide]
576 nM	4860 nM	207 nM	308 nM	COc1ncccc1-c1c(C)c2cc(NC(=O)[C@@H]3C[C@@H]3F)ncc2n1C [Compound 61, (1S,2S)-2-fluoro-N-(2-(2-methoxypyridin-3-yl)-1,3-dimethyl-1H-pyrrolo[2,3-c]pyridin-5-yl)cyclopropanecarboxamide]
139 nM	1610 nM	32.5 nM	47.8 nM	[2H]C([2H])([2H])n1c(-c2cccnc2OC)cc2cc(NC(=O)[C@@H]3C[C@@H]3F)ncc21 [Compound 64, (1S,2S)-2-fluoro-N-(2-(2-methoxypyridin-3-yl)-1-(methyl-d3)-1H-pyrrolo[2,3-c]pyridin-5-yl)cyclopropane-1-carboxamide]
217 nM	> 10000 nM	49.2 nM	47.6 nM	[2H]C([2H])([2H])n1c(-c2cc(F)cnc2OC)cc2cc(NC(=O)[C@@H]3C[C@@H]3F)ncc21 [Compound 65, (1S,2S)-2-fluoro-N-(2-(5-fluoro-2-methoxypyridin-3-yl)-1-(methyl-d3)-1H-pyrrolo[2,3-c]pyridin-5-yl)cyclopropane-1-carboxamide]
100 nM	1750 nM	25.4 nM	68 nM	COc1ncc(Cl)cc1-c1cc2cc(NC(=O)[C@@H]3C[C@@H]3F)ncc2n1C [Compound 66, (1S,2S)-N-[2-(5-chloro-2-methoxypyridin-3-yl)-1-methylpyrrolo[2,3-c]pyridin-5-yl]-2-fluorocyclopropane-1-carboxamide]
207 nM	5280 nM	126 nM	513 nM	COc1ncc(C#N)cc1-c1cc2cc(NC(=O)[C@@H]3C[C@@H]3F)ncc2n1C [Compound 67, (1S,2S)-N-[2-(5-cyano-2-methoxypyridin-3-yl)-1-methylpyrrolo[2,3-c]pyridin-5-yl]-2-fluorocyclopropane-1-carboxamide]
193 nM	1030 nM	87.4 nM	316 nM	COc1cc2scnc2cc1-c1cc2cc(NC(=O)[C@@H]3C[C@@H]3F)ncc2n1C [Compound 70, (1S,2S)-2-fluoro-N-[2-(6-methoxy-1,3-benzothiazol-5-yl)-1-methylpyrrolo[2,3-c]pyridin-5-yl]cyclopropane-1-carboxamide]

Compound	IC50 [1]	IC50 [2]	IC50 [3]	IC50 [4]
COc1cc2[nH]cnc2cc1-c1cc2cc(NC(=O)[C@@H]3C[C@@H]3F)ncc2n1C [Compound 28, (1S,2S)-2-fluoro-N-(2-(6-methoxy-1H-benzo[d]imidazol-5-yl)-1-methyl-1H-pyrrolo[2,3-c]pyridin-5-yl)cyclopropanecarboxamide formate]	30.4 nM	233 nM	9.95 nM	19.8 nM
